Legend:
Format in all cases: in vivo
[1] = test system: barnyardgrass (Echinochloa crus-galli); experiment: Test A preemergence, barnyardgrass; conditions: 0 to 100 scale, 0 is no effect, 100 is complete control
In short: (§1)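 Ratings reflect visual comparison with untreated controls roughly 10 d after greenhouse application, 0 meaning no effect and 100 complete control. Treatment was by directed soil spray at planting or by spray onto one- to two-leaf plants in loam/sand pots.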

kochia (Kochia scoparia) [2] = experiment: Test A preemergence, kochia; conditions: 0 to 100 scale, 0 is no effect, 100 is complete control
In short: as §1

[3] = test system: ragweed (common ragweed, Ambrosia elatior); experiment: Test A preemergence, ragweed; conditions: 0 to 100 scale, 0 is no effect, 100 is complete control
In short: as §1

[4] = test system: ryegrass, Italian (Lolium multiflorum); experiment: Test A preemergence, Italian ryegrass; conditions: 0 to 100 scale, 0 is no effect, 100 is complete control
In short: as §1

[5] = test system: foxtail, giant (Setaria faberii); experiment: Test A preemergence, giant foxtail; conditions: 0 to 100 scale, 0 is no effect, 100 is complete control
In short: as §1

[6] = test system: pigweed (Amaranthus retroflexus); experiment: Test A preemergence, pigweed; conditions: 0 to 100 scale, 0 is no effect, 100 is complete control
In short: as §1

[7] = test system: barnyardgrass (Echinochloa crus-galli); experiment: Test A postemergence, barnyardgrass; conditions: 0 to 100 scale, 0 no effect, 100 complete control
In short: as §1

kochia (Kochia scoparia) [8] = experiment: Test A postemergence, kochia; conditions: 0 to 100 scale, 0 no effect, 100 complete control
In short: as §1

[9] = test system: ragweed (common ragweed, Ambrosia elatior); experiment: Test A postemergence, ragweed; conditions: 0 to 100 scale, 0 no effect, 100 complete control
In short: as §1

[10] = test system: ryegrass, Italian (Lolium multiflorum); experiment: Test A postemergence, Italian ryegrass; conditions: 0 to 100 scale, 0 no effect, 100 complete control
In short: as §1

[11] = test system: foxtail, giant (Setaria faberii); experiment: Test A postemergence, giant foxtail; conditions: 0 to 100 scale, 0 no effect, 100 complete control
In short: as §1

[12] = test system: pigweed (Amaranthus retroflexus); experiment: Test A postemergence, pigweed; conditions: 0 to 100 scale, 0 no effect, 100 complete control
In short: as §1

[13] = test system: wheat (Triticum aestivum); experiment: Test A postemergence, wheat; conditions: 0 to 100 scale, 0 no effect, 100 complete control
In short: as §1

corn (Zea mays) = experiment: Test A postemergence, corn; conditions: 0 to 100 scale, 0 no effect, 100 complete control
In short: as §1

[14] = test system: blackgrass (Alopecurus myosuroides); experiment: Test A postemergence, blackgrass; conditions: 0 to 100 scale, 0 no effect, 100 complete control
In short: as §1

[15] = test system: galium (catchweed bedstraw, Galium aparine); experiment: Test A postemergence, galium; conditions: 0 to 100 scale, 0 no effect, 100 complete control
In short: as §1

rice (Oryza sativa) = experiment: Test B flooded paddy test, rice; conditions: Flood, 250 g ai/ha, applied to paddy water, 2-leaf stage, visual evaluation after 13 to 15 d
In short: (§2)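 Pots flooded to 3 cm above the soil when treated, with test compound added straight to the water and the flood maintained. Treated plants were at the 2-leaf stage and stayed 13–15 d in greenhouse. Response versus untreated controls scored visually from 0 (no effect) to 100 (complete control).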

[16] = test system: sedge, umbrella (small-flower umbrella sedge, Cyperus difformis); experiment: Test B flooded paddy test, umbrella sedge; conditions: Flood, 250 g ai/ha, applied to paddy water, 2-leaf stage, visual evaluation after 13 to 15 d
In short: as §2

[17] = test system: ducksalad (Heteranthera limosa); experiment: Test B flooded paddy test, ducksalad; conditions: Flood, 250 g ai/ha, applied to paddy water, 2-leaf stage, visual evaluation after 13 to 15 d
In short: as §2

[18] = test system: barnyardgrass (Echinochloa crus-galli); experiment: Test B flooded paddy test, barnyardgrass; conditions: Flood, 250 g ai/ha, applied to paddy water, 2-leaf stage, visual evaluation after 13 to 15 d
In short: as §2

Structure (SMILES)	Barnyardgrass plant response rating ([1]; 125 g ai/ha)	Barnyardgrass plant response rating ([1]; 500 g ai/ha)	Kochia plant response rating (kochia (Kochia scoparia) [2]; 125 g ai/ha)	Kochia plant response rating (kochia (Kochia scoparia) [2]; 500 g ai/ha)	Ragweed plant response rating ([3]; 125 g ai/ha)	Ragweed plant response rating ([3]; 500 g ai/ha)	Ryegrass, Italian plant response rating ([4]; 125 g ai/ha)	Ryegrass, Italian plant response rating ([4]; 500 g ai/ha)	Foxtail, Giant plant response rating ([5]; 125 g ai/ha)	Foxtail, Giant plant response rating ([5]; 500 g ai/ha)	Pigweed plant response rating ([6]; 125 g ai/ha)	Pigweed plant response rating ([6]; 500 g ai/ha)	Plant response rating, Barnyardgrass ([7]; 125 g ai/ha)	Plant response rating, Barnyardgrass ([7]; 500 g ai/ha)	Plant response rating, Kochia (kochia (Kochia scoparia) [8]; 125 g ai/ha)	Plant response rating, Kochia (kochia (Kochia scoparia) [8]; 500 g ai/ha)	Plant response rating, Ragweed ([9]; 125 g ai/ha)	Plant response rating, Ragweed ([9]; 500 g ai/ha)	Plant response rating, Ryegrass, Italian ([10]; 125 g ai/ha)	Plant response rating, Ryegrass, Italian ([10]; 500 g ai/ha)	other results
Nc1nc(N[C@H](c2coc3ccccc23)C2CC2)ncc1C(F)(F)F [Compound 78]	0	0	80	90	0	20	20	50	0	0	0	20	0	0	0	20	0	0	0	0	Plant response rating, Foxtail, Giant ([11]; 125 g ai/ha): 0; Plant response rating, Foxtail, Giant ([11]; 500 g ai/ha): 0; Plant response rating, Pigweed ([12]; 125 g ai/ha): 60; Plant response rating, Pigweed ([12]; 500 g ai/ha): 70; Plant response rating, Wheat ([13]; 125 g ai/ha): 0; Plant response rating, Wheat ([13]; 500 g ai/ha): 0; Plant response rating, Corn (corn (Zea mays); 125 g ai/ha): 0; Plant response rating, Corn (corn (Zea mays); 500 g ai/ha): 0; Plant response rating, Blackgrass ([14]; 125 g ai/ha): 0; Plant response rating, Blackgrass ([14]; 500 g ai/ha): 0; Plant response rating, Galium ([15]; 125 g ai/ha): 0; Plant response rating, Galium ([15]; 500 g ai/ha): 10; Plant response rating, Rice (0 to 100 scale, 0 is no effect, 100 is complete control) (rice (Oryza sativa)): 0; Plant response rating, Sedge, Umbrella (0 to 100 scale, 0 is no effect, 100 is complete control) [16]: 0; Plant response rating, Ducksalad (0 to 100 scale, 0 is no effect, 100 is complete control) [17]: 0; Plant response rating, Barnyardgrass (0 to 100 scale, 0 is no effect, 100 is complete control) [18]: 0
CC(Nc1nc(N)c(C(F)(F)F)c(C(F)(F)F)n1)c1cc2ccccc2o1 (racemic) [Compound 58]	0	0	0	0	0	0	0	0	0	0	0	0	0	50	30	80	0	20	0	0	Plant response rating, Foxtail, Giant ([11]; 125 g ai/ha): 0; Plant response rating, Foxtail, Giant ([11]; 500 g ai/ha): 10; Plant response rating, Pigweed ([12]; 125 g ai/ha): 20; Plant response rating, Pigweed ([12]; 500 g ai/ha): 60; Plant response rating, Wheat ([13]; 125 g ai/ha): 0; Plant response rating, Wheat ([13]; 500 g ai/ha): 0; Plant response rating, Corn (corn (Zea mays); 125 g ai/ha): 0; Plant response rating, Corn (corn (Zea mays); 500 g ai/ha): 0; Plant response rating, Blackgrass ([14]; 125 g ai/ha): 0; Plant response rating, Blackgrass ([14]; 500 g ai/ha): 0; Plant response rating, Galium ([15]; 125 g ai/ha): 0; Plant response rating, Galium ([15]; 500 g ai/ha): 20; Plant response rating, Rice (0 to 100 scale, 0 is no effect, 100 is complete control) (rice (Oryza sativa)): 0; Plant response rating, Sedge, Umbrella (0 to 100 scale, 0 is no effect, 100 is complete control) [16]: 0; Plant response rating, Ducksalad (0 to 100 scale, 0 is no effect, 100 is complete control) [17]: 0; Plant response rating, Barnyardgrass (0 to 100 scale, 0 is no effect, 100 is complete control) [18]: 0

Source: patent US20220119354A1, “DIAMINO-SUBSTITUTED PYRIDINES AND PYRIMIDINES AS HERBICIDES” (FMC Corporation, priority 2019, published 2022)
